In patent US7816350B2, “Substituted [1,2,3] triazolo[4,5-D]pyrimidines as cdk inhibitors” (Institute of Experimental Botany ASCR, priority 2002, dated 2010):
Several values for one entry are separate records, joined by “and”; a condition that tells them apart may be missing. Equal values may be shown once.

Assays:
MCF7 = test: In vitro cytotoxic activity, MTT assay, MCF7; format: cell-based; details: Homo sapiens, 72 hours
From the text: One of the parameters used, as the basis for colorimetric assays is the metabolic activity of viable cells. For example, a microtiter assay, which uses the tetrazolium salt MTT, is now widely used to quantitate cell proliferation and cytotoxicity. For instance, this assay is used in drug screening programs and in chemosensitivity testing. Because only metabolically active cells cleave tetrazolium salts, these assays detect viable cells exclusively. In the case of MTT assay, yellow soluble tetrazolium salt is reduced to coloured water-insoluble formazan salt. After it is solubilized, the formazan formed can easily and rapidly be quantified in a conventional ELISA plate reader at 570 nm (maximum absorbance). The quantity of reduced formazan corresponds to number of vital cells in the culture.
Human T-lymphoblastic leukemia cell line CEM; promyelocytic HL-60 and monocytic U937 leukemias; breast carcinoma cell lines MCF-7, BT549, MDA-MB-231; glioblastoma U87MG cells; cervical carcinoma cells HELA; sarcoma cells U2OS and Saos2; hepatocellular carcinoma HepG2; mouse immortalized bone marrow macrophages B2.4 and B10A.4; P388D1 and L1210 leukemia; B16 and B16F10 melanomas were used for routine screening of compounds. The cells were maintained in Nunc/Corning 80 cm^2 plastic tissue culture flasks and cultured in cell culture medium (DMEM with 5 g/l glucose, 2 mM glutamine, 100 U/ml penicillin, 100 μg/ml streptomycin, 10% fetal calf serum and sodium bicarbonate).
The cell suspensions that were prepared and diluted according to the particular cell type and the expected target cell density (2.500-30.000 cells per well based on cell growth characteristics) were added by pipette (80 μl) into 96/well microtiter plates. Inoculates were allowed a pre-incubation period of 24 hours at 37° C. and 5% CO2 for stabilisation. Four-fold dilutions of the intended test concentration were added at time zero in 20 μl aliquots to the microtiter plate wells. Usually, test compound was evaluated at six 4-fold dilutions. In routine testing, the highest well concentration was 266.7 μM, but it can be the matter of change dependent on the agent. All drug concentrations were examined in duplicates. Incubations of cells with the test compounds lasted for 72 hours at 37° C., in 5% CO2 atmosphere and 100% humidity. At the end of incubation period, the cells were assayed by using the MTT. Ten microliters of the MTT stock solution were pipetted into each well and incubated further for 1-4 hours. After this incubation period, formazan was solubilized by addition of 100 μl/well of 10% SDS in water (pH=5.5) followed by further incubation at 37° C. overnight. The optical density (OD) was measured at 540 nm with the Labsystem iEMS Reader MF (UK). The tumour cell survival (TCS) was calculated using the following equation: TCS=(ODdrug exposed well/mean ODcontrol wells)×100%. The IC50 value, the drug concentration lethal to 50% of the tumour cells, was calculated from the obtained dose response curves (FIG. 2).

K-562 = test: In vitro cytotoxic activity, MTT assay, K-562; format: cell-based; details: Homo sapiens, K562, 72 hours
p34^cdc2/cyclin B (CDC2) = molecular target: T1, p34^cdc2/cyclin B (CDC2) (Homo sapiens, UniProt P06493); test: CDK inhibition assay, p34cdc2/cyclin B kinase, histone H1 phosphorylation; format: biochemical
T1 construct: made in house; host or cells: Sf9 insect cells (baculovirus co-infection)
T1 sequence (P06493 whole entry, species assumed): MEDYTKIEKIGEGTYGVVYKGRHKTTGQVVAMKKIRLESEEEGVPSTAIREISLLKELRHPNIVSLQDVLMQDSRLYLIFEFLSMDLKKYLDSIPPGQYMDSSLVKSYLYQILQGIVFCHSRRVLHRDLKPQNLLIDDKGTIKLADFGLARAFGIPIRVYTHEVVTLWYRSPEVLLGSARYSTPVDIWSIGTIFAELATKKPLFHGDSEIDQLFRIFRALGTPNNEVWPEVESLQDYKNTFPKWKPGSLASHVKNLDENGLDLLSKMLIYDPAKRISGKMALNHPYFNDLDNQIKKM
T1 sequence (P14635 whole entry partner, species assumed): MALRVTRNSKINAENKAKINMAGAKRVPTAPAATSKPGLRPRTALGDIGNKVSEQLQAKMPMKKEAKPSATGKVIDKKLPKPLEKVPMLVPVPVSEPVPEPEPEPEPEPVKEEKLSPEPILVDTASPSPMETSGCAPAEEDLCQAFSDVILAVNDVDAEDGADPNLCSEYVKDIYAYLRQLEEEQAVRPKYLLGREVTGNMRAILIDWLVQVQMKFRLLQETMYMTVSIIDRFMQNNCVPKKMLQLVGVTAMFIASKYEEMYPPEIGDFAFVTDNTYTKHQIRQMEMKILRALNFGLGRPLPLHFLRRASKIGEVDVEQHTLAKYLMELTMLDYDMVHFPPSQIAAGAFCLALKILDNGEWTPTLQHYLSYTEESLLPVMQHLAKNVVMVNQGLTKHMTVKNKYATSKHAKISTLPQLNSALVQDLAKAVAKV
Method: (§1) Cyclin-dependent kinases (p34^cdc2, p33^cdk2) and cyclins (cyclin B, E) are produced in Sf9 insect cells coinfected with appropriate baculoviral constructs. The cells are harvested 68-72 hrs post infection in lysis buffer for 30 min on ice and the soluble fraction is recovered by centrifugation at 14.000 g for 10 min. The protein extract is stored at −80° C.
(§2) Lysis buffer: 50 mM Tris pH 7.4, 150 mM NaCl, 5 mM EDTA, 20 mM NaF, 1% Tween, 1 mM DTT, 0.1 mM PMSF, leupeptine, aprotonine.
(§3) To carry out experiments on kinetics under linear conditions, the final point test system for kinase activity measurement is used. The kinase is added to reaction mixture in such a way as to obtain linear activity with respect to the concentration of enzyme and with respect to time.
(§4) The p34^cdc2 and p33^cdk2 kinase inhibition determination involves the use of 1 mg/ml histone H1 (Sigma, type III-S) in the presence of 15 μM [γ-^32P]ATP ([…]) (Amersham) in a final volume of 20 μl. Kinase activity is determined at 30° C. in the kinase buffer.
(§5) Tested compounds are usually dissolved to 100 mM solutions in DMSO, final concentration of DMSO in reaction mixture never exceeds 1%. The controls contain suitable dilutions of DMSO.
(§6) After 10 min, addition 3×SDS sample buffer stops the incubations. Phosphorylated proteins are separated electrophoretically using 12.5% SDS polyacrylamide gel. The measurement of kinase activity is done using digital image analysis.
(§7) The kinase activity is expressed as a percentage of maximum activity, the apparent inhibition constants are determined by graphic analysis (FIG. 1).
(§8) Kinase buffer: 50 mM Hepes pH 7.4, 10 mM MgCl2, 5 mM EGTA, 10 mM 2-glycerolphosphate, 1 mM NaF, 1 mM DTT

IκB-α kinase = IκB-α kinase inhibitory activity, in vitro kinase assay; format: biochemical
CDK9 - cyclin T1 = CDK9 - cyclin T1 (Homo sapiens, UniProt P50750); test: CDK inhibitory activity, CDK9 - cyclin T1; format: biochemical
CDK9 - cyclin T1, sequence (P50750 whole entry): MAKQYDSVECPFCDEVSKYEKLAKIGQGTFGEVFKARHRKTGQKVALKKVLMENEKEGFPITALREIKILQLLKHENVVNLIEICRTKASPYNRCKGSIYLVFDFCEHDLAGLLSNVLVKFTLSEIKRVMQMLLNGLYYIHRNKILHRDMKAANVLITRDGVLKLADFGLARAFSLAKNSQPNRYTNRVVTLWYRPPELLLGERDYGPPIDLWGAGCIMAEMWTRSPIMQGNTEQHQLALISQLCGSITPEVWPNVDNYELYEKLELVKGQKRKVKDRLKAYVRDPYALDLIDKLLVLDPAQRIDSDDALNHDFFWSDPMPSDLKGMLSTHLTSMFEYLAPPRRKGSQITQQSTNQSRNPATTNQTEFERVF
CDK9 - cyclin T1, sequence (O60563 whole entry partner): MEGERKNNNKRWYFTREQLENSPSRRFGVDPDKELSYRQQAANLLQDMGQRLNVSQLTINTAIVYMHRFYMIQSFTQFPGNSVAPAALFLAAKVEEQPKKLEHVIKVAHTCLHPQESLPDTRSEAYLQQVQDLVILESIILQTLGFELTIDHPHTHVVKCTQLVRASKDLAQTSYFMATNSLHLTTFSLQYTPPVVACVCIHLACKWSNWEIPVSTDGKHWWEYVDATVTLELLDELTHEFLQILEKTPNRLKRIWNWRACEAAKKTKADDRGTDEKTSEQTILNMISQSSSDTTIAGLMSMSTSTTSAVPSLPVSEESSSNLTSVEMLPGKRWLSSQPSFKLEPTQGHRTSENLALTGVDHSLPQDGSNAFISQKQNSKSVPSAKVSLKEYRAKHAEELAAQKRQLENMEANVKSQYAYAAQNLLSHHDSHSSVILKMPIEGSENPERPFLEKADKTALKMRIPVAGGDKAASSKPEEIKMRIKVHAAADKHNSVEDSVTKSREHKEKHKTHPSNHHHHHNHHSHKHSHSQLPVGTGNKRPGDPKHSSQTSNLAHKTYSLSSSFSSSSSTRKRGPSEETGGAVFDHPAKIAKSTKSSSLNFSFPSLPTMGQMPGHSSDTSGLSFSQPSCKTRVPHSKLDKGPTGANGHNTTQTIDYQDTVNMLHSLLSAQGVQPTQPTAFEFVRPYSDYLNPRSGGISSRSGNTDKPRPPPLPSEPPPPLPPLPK

p33^cdk2 (cyclin E) = molecular target: T2, p33^cdk2 (cyclin E) (Homo sapiens, UniProt P24941); test: CDK inhibition assay, p33cdk2 kinase, histone H1 phosphorylation; format: biochemical
T2 construct: made in house; host or cells: Sf9 insect cells (baculovirus co-infection)
Method: as §1, §2, §3, §4, §5, §6, §7, §8

| Structure (SMILES) | IC50 (p34^cdc2/cyclin B (CDC2)) [µM] | IC50 (IκB-α kinase) | IC50 (CDK9 - cyclin T1) [µM] | IC50 (p33^cdk2 (cyclin E)) [µM] | IC50 (MCF7) [µM] | IC50 (K-562) [µM] |
| --- | --- | --- | --- | --- | --- | --- |
| CC(C)[C@H](CO)Nc1nc(Nc2ccc(N)c(Cl)c2)c2nnn(C(C)C)c2n1 | 40 | > 100 µM | – | – | 22.5 | 28.9 |
| COc1ccc(CNc2nc(NC3CCCCC3N)nc3c2nnn3C(C)C)cc1O (stereo not shown) | – | – | 1.7 | 7 | – | – |
| CC(=O)c1cccc(CNc2nc(N[C@@H](CO)C(C)C)nc3c2nnn3C(C)C)c1 | 40 | > 100 µM | – | – | 47.6 | 50.6 |
| CC(C)n1nnc2c(Nc3cccc(Cl)c3)nc(NCCO)nc21 | – | > 100 µM | – | – | > 100 | > 100 |
| CC[C@H](CO)Nc1nc(NCc2ccc(OC)c(O)c2)c2nnn(C(C)C)c2n1 | – | – | 2 | 6.4 | – | – |
| CC(C)n1nnc2c(NCc3ccccc3O)nc(NC3CCC(N)CC3)nc21 (stereo not shown) | – | – | 14.7 | 27.7 | – | – |
| CC(C)n1nnc2c(NCc3ccccc3)nc(NCCCO)nc21 | – | – | 29.2 | 54.6 | – | – |
| Cn1nnc2c(NC(CO)c3ccccc3)nc(NCCO)nc21 (racemic) | 80 | > 100 µM | – | – | – | – |
| CC[C@H](CO)Nc1nc(NCc2ccccc2)c2nnn(C(C)C)c2n1 | – | – | 11.5 | 23.2 | – | – |
| Cn1nnc2c(Nc3cc(N)cc(Cl)c3)nc(NCCO)nc21 | 50 | > 100 µM | – | – | – | – |
| Cn1nnc2c(Nc3ccc(Cl)c(C(=O)O)c3)nc(NCCO)nc21 | 43 | > 100 µM | – | – | – | – |

Further compounds by falling IC50 (p34^cdc2/cyclin B (CDC2)), results first:

| IC50 (p34^cdc2/cyclin B (CDC2)) [µM] | IC50 (IκB-α kinase) | IC50 (CDK9 - cyclin T1) [µM] | IC50 (p33^cdk2 (cyclin E)) [µM] | Structure (SMILES) | IC50 (MCF7) [µM] | IC50 (K-562) [µM] |
| --- | --- | --- | --- | --- | --- | --- |
| 35 | 90 µM | – | – | CC(C)[C@H](CO)Nc1nc(Nc2ccc(Cl)cc2)c2nnn(C(C)C)c2n1 | 17.6 | 19.4 |
| 35 | > 100 µM | – | – | CC(C)[C@H](CO)Nc1nc(Nc2ccc(Br)cc2)c2nnn(C(C)C)c2n1 | 64 | 75 |
| 35 | > 100 µM and 80 µM | – | – | CC[C@H](CO)Nc1nc(Nc2cccc(Cl)c2)c2nnn(C(C)C)c2n1 | > 100 | > 100 |
| 34 | > 100 µM | – | – | CC(C)[C@H](CO)Nc1nc(Nc2ccc(O)c(C(=O)O)c2)c2nnn(C(C)C)c2n1 | 24 | 28 |
| 30 | 80 µM | – | – | CC(C)[C@H](CO)Nc1nc(Nc2ccc(Cl)c(C(=O)O)c2)c2nnn(C(C)C)c2n1 | 21 | 42 |
| 29 | > 100 µM | – | – | CC[C@H](CO)Nc1nc(NCc2ccc(Cl)c(N)c2)c2nnn(C(C)C)c2n1 | – | – |
| 24 | – | – | – | CC(C)[C@H](CO)Nc1nc(Nc2ccc(Cl)c(N)c2)c2nnn(C(C)C)c2n1 | 16.4 | 18.8 |
| 17 | > 100 µM | – | – | CC[C@H](CO)Nc1nc(NCc2c(O)cc(OC)cc2O)c2nnn(C(C)C)c2n1 | – | – |
| 10 | 85 µM | – | – | CC(=O)Oc1ccccc1CNc1nc(N[C@@H](CO)C(C)C)nc2c1nnn2C(C)C | 24.1 | 24 |
